#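 Five compound concentrations were applied to cells in 96-well plates for 48 hours; endpoints were derived by simple linear interpolation of the resulting dose-response curve. The concentration for 50% growth inhibition is given as GI50.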 Activity calls are given as the source filed them. Cut-off read from the data, not from the text of the source: active = GI50 up to about 1.1 µM and inactive = higher.
# Experiments:
# Assay in all cases: inhibition of tumour cell growth, NCI panel, 48 h
# RPMI-8226 = test system: RPMI-8226
# ACHN = test system: ACHN
# SF-295 = test system: SF-295
# NCI-H226 = test system: NCI-H226
# SK-MEL-28 = test system: SK-MEL-28
# TK-10 = test system: TK-10
# M14 = test system: M14
# HCT-15 = test system: HCT-15
# KM12 = test system: KM12
# K562 = test system: K562
# BT-549 = test system: BT-549
# LOX IMVI = test system: LOX IMVI
# Malme-3M = test system: Malme-3M
# 786-0 = test system: 786-0
# SW-620 = test system: SW-620
# CCRF-CEM = test system: CCRF-CEM
# CAKI-1 = test system: CAKI-1
# MDA-MB-231 = test system: MDA-MB-231
# OVCAR-8 = test system: OVCAR-8
# A549 = test system: A549
# MOLT-4 = test system: MOLT-4
# U-251 = test system: U-251
# OVCAR-4 = test system: OVCAR-4
# NCI-H522 = test system: NCI-H522
# COLO 205 = test system: COLO 205
# SF-539 = test system: SF-539
# SNB-19 = test system: SNB-19
# HOP-62 = test system: HOP-62
# UACC-62 = test system: UACC-62
# HCT-116 = test system: HCT-116
# NCI/ADR-RES = test system: NCI/ADR-RES
# MDA-MB-435 = test system: MDA-MB-435
# SK-OV-3 = test system: SK-OV-3
# UO-31 = test system: UO-31
# RXF 393 = test system: RXF 393
# OVCAR-3 = test system: OVCAR-3
# NCI-H23 = test system: NCI-H23
# PC-3 = test system: PC-3
# T47D = test system: T47D
# HOP-92 = test system: HOP-92
# NCI-H460 = test system: NCI-H460
# IGROV-1 = test system: IGROV-1
# MCF7 = test system: MCF7
# SR = test system: SR
# A498 = test system: A498
# HCC 2998 = test system: HCC 2998
# SN12C = test system: SN12C
# OVCAR-5 = test system: OVCAR-5
# Hs-578T = test system: Hs-578T
# SF-268 = test system: SF-268
# UACC-257 = test system: UACC-257
# SK-MEL-5 = test system: SK-MEL-5
# EKVX = test system: EKVX
# HL-60 = test system: HL-60
# DU-145 = test system: DU-145
# HT-29 = test system: HT-29
# SK-MEL-2 = test system: SK-MEL-2
# MDA-N = test system: MDA-N
compound,measurement,setting,value
CC(C)(C)OC(=O)NCC(O)CNC(=O)OC(C)(C)C,GI50,RPMI-8226,> 100 µM (inactive)
same,GI50,ACHN,> 100 µM (inactive)
same,GI50,SF-295,> 100 µM (inactive)
same,GI50,NCI-H226,> 100 µM (inactive)
same,GI50,SK-MEL-28,> 100 µM (inactive)
same,GI50,TK-10,> 100 µM (inactive)
same,GI50,M14,> 100 µM (inactive)
same,GI50,HCT-15,> 100 µM
same,GI50,KM12,> 100 µM (inactive)
same,GI50,K562,> 100 µM (inactive)
same,GI50,BT-549,> 100 µM (inactive)
same,GI50,LOX IMVI,> 100 µM (inactive)
same,GI50,Malme-3M,> 100 µM (inactive)
same,GI50,786-0,> 100 µM (inactive)
same,GI50,SW-620,> 100 µM (inactive)
same,GI50,CCRF-CEM,> 100 µM (inactive)
same,GI50,CAKI-1,> 100 µM (inactive)
same,GI50,MDA-MB-231,> 100 µM (inactive)
same,GI50,OVCAR-8,> 100 µM (inactive)
same,GI50,A549,> 100 µM (inactive)
same,GI50,MOLT-4,> 100 µM (inactive)
same,GI50,U-251,> 100 µM (inactive)
same,GI50,OVCAR-4,> 100 µM (inactive)
same,GI50,NCI-H522,> 100 µM (inactive)
same,GI50,COLO 205,> 100 µM (inactive)
same,GI50,SF-539,> 100 µM (inactive)
same,GI50,SNB-19,> 100 µM (inactive)
same,GI50,HOP-62,> 100 µM (inactive)
same,GI50,UACC-62,> 100 µM (inactive)
same,GI50,HCT-116,> 100 µM (inactive)
same,GI50,NCI/ADR-RES,> 100 µM (inactive)
same,GI50,MDA-MB-435,> 100 µM (inactive)
same,GI50,SK-OV-3,> 100 µM (inactive)
same,GI50,UO-31,> 100 µM (inactive)
same,GI50,RXF 393,> 100 µM (inactive)
same,GI50,OVCAR-3,> 100 µM (inactive)
same,GI50,NCI-H23,> 100 µM (inactive)
same,GI50,PC-3,> 100 µM (inactive)
same,GI50,T47D,> 100 µM (inactive)
same,GI50,HOP-92,> 100 µM (inactive)
same,GI50,NCI-H460,> 100 µM (inactive)
same,GI50,IGROV-1,> 100 µM (inactive)
same,GI50,MCF7,> 100 µM (inactive)
same,GI50,SR,> 100 µM (inactive)
same,GI50,A498,> 100 µM (inactive)
same,GI50,HCC 2998,> 100 µM (inactive)
same,GI50,SN12C,> 100 µM (inactive)
same,GI50,OVCAR-5,> 100 µM (inactive)
same,GI50,Hs-578T,> 100 µM (inactive)
same,GI50,SF-268,> 100 µM (inactive)
same,GI50,UACC-257,> 100 µM (inactive)
same,GI50,SK-MEL-5,> 100 µM (inactive)
same,GI50,EKVX,> 100 µM (inactive)
same,GI50,HL-60,> 100 µM (inactive)
same,GI50,DU-145,> 100 µM (inactive)
CCN(CC)C(=S)SS(=O)(=O)c1cccc(N)c1,GI50,RPMI-8226,> 100 µM (inactive)
same,GI50,ACHN,> 100 µM (inactive)
same,GI50,SF-295,> 100 µM (inactive)
same,GI50,HT-29,> 100 µM (inactive)
same,GI50,NCI-H226,> 100 µM (inactive)
same,GI50,SK-MEL-28,> 100 µM (inactive)
same,GI50,TK-10,> 100 µM (inactive)
same,GI50,M14,> 100 µM (inactive)
same,GI50,HCT-15,> 100 µM
same,GI50,SK-MEL-2,> 100 µM (inactive)
same,GI50,KM12,> 100 µM (inactive)
same,GI50,K562,> 100 µM (inactive)
same,GI50,BT-549,> 100 µM (inactive)
same,GI50,LOX IMVI,> 100 µM (inactive)
same,GI50,Malme-3M,> 100 µM (inactive)
same,GI50,786-0,> 100 µM (inactive)
same,GI50,SW-620,> 100 µM (inactive)
same,GI50,CAKI-1,> 100 µM (inactive)
same,GI50,MDA-MB-231,> 100 µM (inactive)
same,GI50,OVCAR-8,> 100 µM (inactive)
same,GI50,A549,> 100 µM (inactive)
same,GI50,MOLT-4,> 100 µM (inactive)
same,GI50,U-251,> 100 µM (inactive)
same,GI50,OVCAR-4,> 100 µM (inactive)
same,GI50,NCI-H522,> 100 µM (inactive)
same,GI50,COLO 205,> 100 µM (inactive)
same,GI50,SF-539,> 100 µM (inactive)
same,GI50,SNB-19,> 100 µM (inactive)
same,GI50,HOP-62,> 100 µM (inactive)
same,GI50,UACC-62,> 100 µM (inactive)
same,GI50,HCT-116,> 100 µM (inactive)
same,GI50,NCI/ADR-RES,> 100 µM (inactive)
same,GI50,MDA-MB-435,> 100 µM (inactive)
same,GI50,SK-OV-3,> 100 µM (inactive)
same,GI50,UO-31,> 100 µM (inactive)
same,GI50,RXF 393,> 100 µM (inactive)
same,GI50,OVCAR-3,> 100 µM (inactive)
same,GI50,NCI-H23,> 100 µM (inactive)
same,GI50,T47D,> 100 µM (inactive)
same,GI50,HOP-92,> 100 µM (inactive)
same,GI50,NCI-H460,> 100 µM (inactive)
same,GI50,MCF7,> 100 µM (inactive)
same,GI50,SR,> 100 µM (inactive)
same,GI50,A498,> 100 µM (inactive)
same,GI50,HCC 2998,> 100 µM (inactive)
same,GI50,SN12C,> 100 µM (inactive)
same,GI50,OVCAR-5,> 100 µM (inactive)
same,GI50,Hs-578T,> 100 µM (inactive)
same,GI50,SF-268,> 100 µM (inactive)
same,GI50,UACC-257,> 100 µM (inactive)
same,GI50,SK-MEL-5,> 100 µM (inactive)
same,GI50,MDA-N,> 100 µM (inactive)
same,GI50,EKVX,> 100 µM (inactive)
same,GI50,DU-145,> 100 µM (inactive)

# From ChEMBL document CHEMBL1201862, “PubChem BioAssay data set” (2004)
